Experimental data from patent US9346753B2, “Dithiol mucolytic agents” (PARION SCIENCES, INC., priority 2013, dated 2016).
Where a name gives a salt, the structure may show the parent alone.

Columns and labels:
sheep treated with NE = assay: TMV studies in sheep (neutrophil elastase model of acute bronchitis); type: in vivo; settings: 1 μmole/kg by aerosol after neutrophil elastase (NE)
Protocol: Test articles were administered to the pulmonary surfaces as an inhalation aerosol. For human neutrophil Elastase (HNE) studies, tracheal mucus velocity (TMV) was measured at 1 and 2 hours after HNE (but before drug); and 1, 30, 60, 90, and 120 minutes post-aerosol administration of Compound G.
The measurements of TMV were made as follows: Eight to 10 radiopaque Teflon disks (˜1 mm in diameter, 0.8 mm thick, and weighing between 1.5-2 mg) were introduced into the trachea via an endotracheal tube (ETT). The particles were insufflated by a catheter connected to a source of compressed air (flow rate of 3-4 ml/min at 50 psi). The catheter was removed following insufflation without contacting the tracheal surface. To minimize the ETT effects on TMV, the cuff was deflated throughout the study except for the period of drug delivery. The disk movements were recorded using videotaped fluoroscopy, and individual disk velocities were calculated by measuring the distance traveled by each disk over a 60-s period. A collar containing radiopaque markers of predetermined length was placed around the animal's neck, which was used as a standard to correct for magnification effects intrinsic to the fluoroscopy unit. The mean value of disk velocities was calculated for each time point. To avoid dehydration, the sheep were periodically gavaged with tap water via a nastrogastric tube. […]

[1] = DTNB assay: rate of disulfide bond reduction; type: biochemical; set-up: unit not given here; settings: 2nd order kinetic
Protocol: DTNB ASSAY: This assay determines the rate which a mucolytic agent can reduce a disulfide bond using 5,5-Dithiobis(2-nitrobenzoic acid). DTNB in various pH buffers and allows comparison of the kinetic rates of reducing agents. First, reducing agent stock solutions (30 mM) were made up in DMSO. Each compound stock solution was diluted, […] in 1 ml 50 mM Tris-HCl buffer, pH 7.5, and then added in a 1:1 volumetric ratio to a solution of 100 mM DTNB in 50 mM Tris-HCl buffer, pH 7.5. Max Abs412 was measured and then utilized to calculate the activity concentration. If the observed activity concentrations differed from expected activity concentrations by more than 5%, the volume was accordingly adjusted to kinetically test the rate in the next step. After having added the reducing agents, diluted in a range of pH buffer solutions (pH 6.0-7.5), to 45 mM DTNB in 50 mM Tris-HCl and measured the Abs412 for 5 min rates were calculated as a 2nd order kinetic.

[2] = Elimination of inhaled NAC from the lungs in animal studies; type: in vivo; settings: inhaled or intranasal, 14C-labeled NAC, administered by inhalation, animal studies (unpublished observation)
Source text: NAC, as a topical pulmonary therapeutic agent, is not optimal for the reduction of mucin disulfide bonds. […] For example, in the pH environment of the airway surface (measured in the range of pH 6.0 to 7.2 in CF and COPD airways), NAC exists only partially in its reactive state as a negatively charge thiolate (Jayaraman S, Song Y, Vetrivel L, Shankar L, Verkman A S. Noninvasive in vivo fluorescence measurement of airway-surface liquid depth, salt concentration, and pH. J Clin Invest. 2001; 107(3):317-24) (FIG. 3). […] The relatively low reducing activity at of NAC physiologic airway pH and a the short half-life of NAC on the lung surface provide an explanation for the lack of strong clinical evidence for effective mucus reduction in mucus obstructive diseases.

Row | half-life [2] | Structure (SMILES) | Duration of TMV restoration post-dosing (sheep treated with NE) | Tracheal mucus velocity (TMV) (sheep treated with NE; compared with vehicle) | Kinetic Reaction Rates of Reduction of DTNB ([1]; pH 6) | Kinetic Reaction Rates of Reduction of DTNB ([1]; pH 6.5) | Kinetic Reaction Rates of Reduction of DTNB ([1]; pH 7) | Kinetic Reaction Rates of Reduction of DTNB ([1]; pH 7.5)
1 | – | N=C(N)NCCCC[C@@H](N)C(=O)NCCOc1cc(CS)c(CS)cc1OCCNC(=O)[C@H](N)CCCCNC(=N)N [Compound G, (2R,2′R)-N,N′-(2,2′-(4,5-bis(mercaptomethyl)-1,2-phenylene)bis(oxy)bis(ethane-2,1-diyl))bis(2-amino-6-guanidinohexanamide) Hydrochloride] | 2 h | restored TMV to normal, pre-NE levels | 5154 | – | – | –
2 | ~20 min | CC(=O)N[C@@H](CS)C(=O)O [NAC, N-acetyl cysteine, reference compound] | – | – | 10 | 26 | 69 | 230
